# Active and inactive are the calls of the source.
# Biological target: T1, MAP/microtubule affinity-regulating kinase 4 (Homo sapiens, UniProt Q96L34)
# T1 sequence (Q96L34 whole entry): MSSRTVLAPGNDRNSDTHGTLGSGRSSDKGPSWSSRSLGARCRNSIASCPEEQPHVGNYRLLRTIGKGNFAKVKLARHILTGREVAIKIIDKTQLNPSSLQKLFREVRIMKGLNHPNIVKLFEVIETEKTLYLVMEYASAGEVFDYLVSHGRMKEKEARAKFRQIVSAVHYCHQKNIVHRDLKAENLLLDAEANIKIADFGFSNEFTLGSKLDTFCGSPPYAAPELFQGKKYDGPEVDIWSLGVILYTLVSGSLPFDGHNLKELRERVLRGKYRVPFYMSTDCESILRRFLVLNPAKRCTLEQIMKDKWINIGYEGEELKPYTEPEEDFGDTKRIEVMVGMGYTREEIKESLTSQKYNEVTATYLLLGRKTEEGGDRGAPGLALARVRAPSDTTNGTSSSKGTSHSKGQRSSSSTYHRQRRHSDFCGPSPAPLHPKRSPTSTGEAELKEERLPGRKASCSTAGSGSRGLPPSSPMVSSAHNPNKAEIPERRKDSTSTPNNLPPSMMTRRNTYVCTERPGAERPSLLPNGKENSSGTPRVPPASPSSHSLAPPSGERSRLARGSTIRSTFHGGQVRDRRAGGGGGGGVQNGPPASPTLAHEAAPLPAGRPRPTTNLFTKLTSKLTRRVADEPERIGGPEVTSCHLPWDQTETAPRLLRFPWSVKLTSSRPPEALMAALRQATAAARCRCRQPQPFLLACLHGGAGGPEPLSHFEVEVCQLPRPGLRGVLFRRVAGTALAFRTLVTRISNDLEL
# Also: in the data inactive means no Kd found up to 30 µM.
row,SMILES,Kd
1,Cc1ccc(S(=O)(=O)Nc2nc3ccccc3nc2Nc2ccc3nsnc3c2)cc1,> 30 µM (inactive)
2,CN1CC[C@@H](c2c(O)cc(O)c3c(=O)cc(-c4ccccc4Cl)oc23)[C@@H]1CO,> 30 µM (inactive)
3,Cc1cc(-c2cc(O)ccc2Cl)cc2nnc(Nc3ccc(OCCN4CCCC4)cc3)nc12,> 30 µM (inactive)
4,CCN1CCN(Cc2ccc(-c3cc4c(N[C@H](C)c5ccccc5)ncnc4[nH]3)cc2)CC1 [AEE-788],> 30 µM (inactive)
5,CNC(=O)c1ccc(-c2cnc3ncc(Cc4ccc5ncccc5c4)n3n2)cc1F [CAPMATINIB],> 30 µM (inactive)
6,Cc1nc(N)sc1-c1ccnc(Nc2ccc(N3CCOCC3)cc2)n1 [CYC-116],> 30 µM (inactive)

# Biological target: T2, Dual specificity mitogen-activated protein kinase kinase 6 (Homo sapiens, UniProt P52564)
# T2 sequence (P52564 whole entry): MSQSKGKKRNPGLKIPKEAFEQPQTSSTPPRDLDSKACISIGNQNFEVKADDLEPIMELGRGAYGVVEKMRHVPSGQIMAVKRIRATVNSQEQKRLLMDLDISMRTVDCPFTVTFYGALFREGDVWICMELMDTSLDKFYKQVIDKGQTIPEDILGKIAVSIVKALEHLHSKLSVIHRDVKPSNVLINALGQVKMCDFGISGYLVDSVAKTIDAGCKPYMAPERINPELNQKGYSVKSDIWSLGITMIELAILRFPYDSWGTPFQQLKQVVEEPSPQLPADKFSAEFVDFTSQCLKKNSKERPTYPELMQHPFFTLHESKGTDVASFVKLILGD
row,SMILES,Kd
1,Cc1ccc(S(=O)(=O)Nc2nc3ccccc3nc2Nc2ccc3nsnc3c2)cc1,> 30 µM (inactive)
2,CN1CC[C@@H](c2c(O)cc(O)c3c(=O)cc(-c4ccccc4Cl)oc23)[C@@H]1CO,> 30 µM (inactive)
3,Cc1cc(-c2cc(O)ccc2Cl)cc2nnc(Nc3ccc(OCCN4CCCC4)cc3)nc12,> 30 µM (inactive)
4,CCN1CCN(Cc2ccc(-c3cc4c(N[C@H](C)c5ccccc5)ncnc4[nH]3)cc2)CC1 [AEE-788],> 30 µM (inactive)
5,CNC(=O)c1ccc(-c2cnc3ncc(Cc4ccc5ncccc5c4)n3n2)cc1F [CAPMATINIB],> 30 µM (inactive)
6,Cc1nc(N)sc1-c1ccnc(Nc2ccc(N3CCOCC3)cc2)n1 [CYC-116],> 30 µM (inactive)

# Biological target: Macrophage-stimulating protein receptor (Homo sapiens, UniProt Q04912)
# Sequence (Q04912 25-304 limits assumed): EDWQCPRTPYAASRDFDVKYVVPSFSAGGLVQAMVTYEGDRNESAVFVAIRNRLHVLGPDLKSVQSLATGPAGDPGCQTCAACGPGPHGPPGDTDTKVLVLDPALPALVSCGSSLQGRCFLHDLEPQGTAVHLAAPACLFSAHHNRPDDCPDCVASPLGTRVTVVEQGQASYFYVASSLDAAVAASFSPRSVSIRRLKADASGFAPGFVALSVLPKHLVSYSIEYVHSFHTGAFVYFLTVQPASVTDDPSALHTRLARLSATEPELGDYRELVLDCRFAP
# Sequence (Q04912 310-1400 limits assumed): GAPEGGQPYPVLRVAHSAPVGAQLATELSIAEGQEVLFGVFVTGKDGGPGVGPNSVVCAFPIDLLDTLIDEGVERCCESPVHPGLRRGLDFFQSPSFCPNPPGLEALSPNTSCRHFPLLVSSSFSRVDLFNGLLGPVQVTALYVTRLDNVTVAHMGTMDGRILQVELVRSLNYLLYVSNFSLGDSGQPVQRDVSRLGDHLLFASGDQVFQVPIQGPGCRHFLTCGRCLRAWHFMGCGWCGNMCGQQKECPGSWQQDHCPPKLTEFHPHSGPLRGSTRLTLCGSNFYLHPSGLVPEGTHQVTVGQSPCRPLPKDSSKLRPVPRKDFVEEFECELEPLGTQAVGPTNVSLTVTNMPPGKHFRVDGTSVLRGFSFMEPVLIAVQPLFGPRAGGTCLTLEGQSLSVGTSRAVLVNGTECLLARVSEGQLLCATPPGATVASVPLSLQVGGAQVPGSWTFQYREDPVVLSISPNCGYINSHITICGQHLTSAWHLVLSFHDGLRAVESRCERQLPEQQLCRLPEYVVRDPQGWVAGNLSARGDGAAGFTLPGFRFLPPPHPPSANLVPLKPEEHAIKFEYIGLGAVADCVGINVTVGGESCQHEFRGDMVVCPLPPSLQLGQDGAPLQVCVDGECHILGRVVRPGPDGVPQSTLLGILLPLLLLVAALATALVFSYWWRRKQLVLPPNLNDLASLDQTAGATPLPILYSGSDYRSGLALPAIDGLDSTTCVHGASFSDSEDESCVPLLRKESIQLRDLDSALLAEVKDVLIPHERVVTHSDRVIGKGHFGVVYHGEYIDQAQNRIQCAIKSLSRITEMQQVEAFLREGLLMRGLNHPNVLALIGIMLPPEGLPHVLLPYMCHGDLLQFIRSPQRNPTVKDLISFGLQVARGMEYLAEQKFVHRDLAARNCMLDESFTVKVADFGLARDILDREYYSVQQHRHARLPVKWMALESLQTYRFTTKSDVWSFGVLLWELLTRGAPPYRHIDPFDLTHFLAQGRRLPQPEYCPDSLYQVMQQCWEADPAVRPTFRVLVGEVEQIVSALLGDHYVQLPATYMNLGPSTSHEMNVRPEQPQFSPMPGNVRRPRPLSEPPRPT
row,SMILES,Kd
1,Cc1ccc(S(=O)(=O)Nc2nc3ccccc3nc2Nc2ccc3nsnc3c2)cc1,> 30 µM (inactive)
2,CN1CC[C@@H](c2c(O)cc(O)c3c(=O)cc(-c4ccccc4Cl)oc23)[C@@H]1CO,> 30 µM (inactive)
3,Cc1cc(-c2cc(O)ccc2Cl)cc2nnc(Nc3ccc(OCCN4CCCC4)cc3)nc12,> 30 µM (inactive)
4,CCN1CCN(Cc2ccc(-c3cc4c(N[C@H](C)c5ccccc5)ncnc4[nH]3)cc2)CC1 [AEE-788],> 30 µM (inactive)
5,CNC(=O)c1ccc(-c2cnc3ncc(Cc4ccc5ncccc5c4)n3n2)cc1F [CAPMATINIB],> 30 µM (inactive)
6,Cc1nc(N)sc1-c1ccnc(Nc2ccc(N3CCOCC3)cc2)n1 [CYC-116],0.575 µM (active)

# Biological target: T3, Ras-related protein Rab-10 (Homo sapiens, UniProt P61026)
# T3 sequence (P61026 whole entry): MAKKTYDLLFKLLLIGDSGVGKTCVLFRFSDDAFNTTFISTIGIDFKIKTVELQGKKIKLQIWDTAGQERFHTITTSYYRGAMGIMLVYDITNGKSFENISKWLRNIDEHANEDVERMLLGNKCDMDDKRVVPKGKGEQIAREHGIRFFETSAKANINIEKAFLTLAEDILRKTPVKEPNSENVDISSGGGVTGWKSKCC
row,SMILES,Kd
1,Cc1ccc(S(=O)(=O)Nc2nc3ccccc3nc2Nc2ccc3nsnc3c2)cc1,> 30 µM (inactive)
2,CN1CC[C@@H](c2c(O)cc(O)c3c(=O)cc(-c4ccccc4Cl)oc23)[C@@H]1CO,> 30 µM (inactive)
3,Cc1cc(-c2cc(O)ccc2Cl)cc2nnc(Nc3ccc(OCCN4CCCC4)cc3)nc12,> 30 µM (inactive)
4,CCN1CCN(Cc2ccc(-c3cc4c(N[C@H](C)c5ccccc5)ncnc4[nH]3)cc2)CC1 [AEE-788],> 30 µM (inactive)
5,Cc1nc(N)sc1-c1ccnc(Nc2ccc(N3CCOCC3)cc2)n1 [CYC-116],> 30 µM (inactive)

# Biological target: T4, Peroxisomal acyl-coenzyme A oxidase 1 (Homo sapiens, UniProt Q15067)
# T4 sequence (Q15067 whole entry): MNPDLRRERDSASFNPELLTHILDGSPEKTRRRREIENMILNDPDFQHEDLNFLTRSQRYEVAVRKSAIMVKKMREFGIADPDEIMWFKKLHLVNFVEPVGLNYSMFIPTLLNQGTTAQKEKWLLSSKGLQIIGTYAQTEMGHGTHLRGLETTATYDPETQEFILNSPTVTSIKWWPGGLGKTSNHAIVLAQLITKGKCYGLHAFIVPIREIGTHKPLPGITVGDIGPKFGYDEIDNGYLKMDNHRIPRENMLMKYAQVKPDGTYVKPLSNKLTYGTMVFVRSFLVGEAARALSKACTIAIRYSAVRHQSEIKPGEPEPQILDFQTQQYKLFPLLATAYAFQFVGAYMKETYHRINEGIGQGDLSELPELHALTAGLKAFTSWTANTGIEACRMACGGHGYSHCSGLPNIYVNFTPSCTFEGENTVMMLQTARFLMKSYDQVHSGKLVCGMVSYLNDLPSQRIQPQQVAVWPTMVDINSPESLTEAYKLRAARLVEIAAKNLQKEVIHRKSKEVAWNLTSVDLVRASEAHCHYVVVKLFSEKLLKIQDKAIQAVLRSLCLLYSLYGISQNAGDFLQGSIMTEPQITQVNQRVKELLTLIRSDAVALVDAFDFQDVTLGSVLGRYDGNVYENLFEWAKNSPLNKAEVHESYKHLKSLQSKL
row,SMILES,Kd
1,Cc1ccc(S(=O)(=O)Nc2nc3ccccc3nc2Nc2ccc3nsnc3c2)cc1,> 30 µM (inactive)
2,CN1CC[C@@H](c2c(O)cc(O)c3c(=O)cc(-c4ccccc4Cl)oc23)[C@@H]1CO,> 30 µM (inactive)
3,Cc1cc(-c2cc(O)ccc2Cl)cc2nnc(Nc3ccc(OCCN4CCCC4)cc3)nc12,> 30 µM (inactive)
4,CCN1CCN(Cc2ccc(-c3cc4c(N[C@H](C)c5ccccc5)ncnc4[nH]3)cc2)CC1 [AEE-788],> 30 µM (inactive)
5,CNC(=O)c1ccc(-c2cnc3ncc(Cc4ccc5ncccc5c4)n3n2)cc1F [CAPMATINIB],> 30 µM (inactive)
6,Cc1nc(N)sc1-c1ccnc(Nc2ccc(N3CCOCC3)cc2)n1 [CYC-116],> 30 µM (inactive)

# Biological target: T5, Dual specificity mitogen-activated protein kinase kinase 3 (Homo sapiens, UniProt P46734)
# T5 sequence (P46734 whole entry): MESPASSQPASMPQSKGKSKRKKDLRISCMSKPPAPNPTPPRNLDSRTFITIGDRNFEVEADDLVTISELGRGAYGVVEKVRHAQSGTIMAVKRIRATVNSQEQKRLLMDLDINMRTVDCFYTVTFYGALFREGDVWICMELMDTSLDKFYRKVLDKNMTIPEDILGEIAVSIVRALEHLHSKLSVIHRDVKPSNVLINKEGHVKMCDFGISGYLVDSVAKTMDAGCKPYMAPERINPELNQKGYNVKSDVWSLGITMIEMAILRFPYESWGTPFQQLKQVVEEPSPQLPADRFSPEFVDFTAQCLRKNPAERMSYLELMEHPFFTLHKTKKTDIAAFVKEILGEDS
row,SMILES,Kd
1,Cc1ccc(S(=O)(=O)Nc2nc3ccccc3nc2Nc2ccc3nsnc3c2)cc1,> 30 µM (inactive)
2,CN1CC[C@@H](c2c(O)cc(O)c3c(=O)cc(-c4ccccc4Cl)oc23)[C@@H]1CO,> 30 µM (inactive)
3,Cc1cc(-c2cc(O)ccc2Cl)cc2nnc(Nc3ccc(OCCN4CCCC4)cc3)nc12,> 30 µM (inactive)
4,CCN1CCN(Cc2ccc(-c3cc4c(N[C@H](C)c5ccccc5)ncnc4[nH]3)cc2)CC1 [AEE-788],> 30 µM (inactive)
5,CNC(=O)c1ccc(-c2cnc3ncc(Cc4ccc5ncccc5c4)n3n2)cc1F [CAPMATINIB],> 30 µM (inactive)
6,Cc1nc(N)sc1-c1ccnc(Nc2ccc(N3CCOCC3)cc2)n1 [CYC-116],> 30 µM (inactive)

# Biological target: MAP/microtubule affinity-regulating kinase 3 (Homo sapiens, UniProt P27448)
# Sequence (P27448 whole entry): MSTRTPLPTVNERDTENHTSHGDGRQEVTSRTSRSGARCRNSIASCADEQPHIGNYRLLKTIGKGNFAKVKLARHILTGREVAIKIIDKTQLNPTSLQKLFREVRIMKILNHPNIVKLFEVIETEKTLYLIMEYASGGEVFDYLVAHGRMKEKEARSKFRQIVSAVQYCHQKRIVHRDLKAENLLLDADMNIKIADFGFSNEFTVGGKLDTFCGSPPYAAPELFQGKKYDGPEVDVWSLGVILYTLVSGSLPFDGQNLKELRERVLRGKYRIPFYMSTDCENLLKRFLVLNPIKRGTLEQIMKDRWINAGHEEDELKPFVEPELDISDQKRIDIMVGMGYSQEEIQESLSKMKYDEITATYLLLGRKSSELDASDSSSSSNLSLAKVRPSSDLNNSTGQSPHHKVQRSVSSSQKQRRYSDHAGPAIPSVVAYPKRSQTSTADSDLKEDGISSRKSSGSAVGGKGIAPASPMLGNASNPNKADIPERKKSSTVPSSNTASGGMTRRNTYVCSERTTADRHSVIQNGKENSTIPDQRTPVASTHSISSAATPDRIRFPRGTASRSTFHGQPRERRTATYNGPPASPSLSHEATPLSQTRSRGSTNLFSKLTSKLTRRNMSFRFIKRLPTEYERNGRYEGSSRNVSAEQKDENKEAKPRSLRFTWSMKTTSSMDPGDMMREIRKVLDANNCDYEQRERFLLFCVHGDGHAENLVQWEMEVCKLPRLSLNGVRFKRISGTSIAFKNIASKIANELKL
row,SMILES,Kd
1,Cc1ccc(S(=O)(=O)Nc2nc3ccccc3nc2Nc2ccc3nsnc3c2)cc1,> 30 µM (inactive)
2,CN1CC[C@@H](c2c(O)cc(O)c3c(=O)cc(-c4ccccc4Cl)oc23)[C@@H]1CO,> 30 µM (inactive)
3,Cc1cc(-c2cc(O)ccc2Cl)cc2nnc(Nc3ccc(OCCN4CCCC4)cc3)nc12,> 30 µM (inactive)
4,CCN1CCN(Cc2ccc(-c3cc4c(N[C@H](C)c5ccccc5)ncnc4[nH]3)cc2)CC1 [AEE-788],> 30 µM (inactive)
5,CNC(=O)c1ccc(-c2cnc3ncc(Cc4ccc5ncccc5c4)n3n2)cc1F [CAPMATINIB],> 30 µM (inactive)

# Source: ChEMBL document CHEMBL3991601, “The target landscape of clinical kinase drugs” (Science, 2017)
